Data set [1] concerns the target purified PARP protein (Homo sapiens, UniProt P09874). Put plainly: PARP enzyme inhibition assay. In kind it is biochemical. The following applies: [32P]NAD+ incorporation, 500 μM NAD+, 25° C.; two values in a cell = tested twice; read-out: Inhibition Constant Ki.
Data set [2] relates to A549 cells. The data set can be described thus: Cytotoxicity potentiation assay (topotecan). The following applies: test compound at 0.4 μM, ratio of IC50 of topotecan alone to IC50 of topotecan with test compound. The format is cell-based.

The source of these data is patent publication US7429578B2, “Tricyclic inhibitors of poly(ADP-ribose) polymerases” (Agouron Pharmaceuticals, Inc., priority 1999, dated 2008).

Values joined by “and” are separate entries in the source; they are usually repeats but may differ in a detail not shown here. Equal entries are not always repeated.

Chain of purified PARP protein (P09874 whole entry): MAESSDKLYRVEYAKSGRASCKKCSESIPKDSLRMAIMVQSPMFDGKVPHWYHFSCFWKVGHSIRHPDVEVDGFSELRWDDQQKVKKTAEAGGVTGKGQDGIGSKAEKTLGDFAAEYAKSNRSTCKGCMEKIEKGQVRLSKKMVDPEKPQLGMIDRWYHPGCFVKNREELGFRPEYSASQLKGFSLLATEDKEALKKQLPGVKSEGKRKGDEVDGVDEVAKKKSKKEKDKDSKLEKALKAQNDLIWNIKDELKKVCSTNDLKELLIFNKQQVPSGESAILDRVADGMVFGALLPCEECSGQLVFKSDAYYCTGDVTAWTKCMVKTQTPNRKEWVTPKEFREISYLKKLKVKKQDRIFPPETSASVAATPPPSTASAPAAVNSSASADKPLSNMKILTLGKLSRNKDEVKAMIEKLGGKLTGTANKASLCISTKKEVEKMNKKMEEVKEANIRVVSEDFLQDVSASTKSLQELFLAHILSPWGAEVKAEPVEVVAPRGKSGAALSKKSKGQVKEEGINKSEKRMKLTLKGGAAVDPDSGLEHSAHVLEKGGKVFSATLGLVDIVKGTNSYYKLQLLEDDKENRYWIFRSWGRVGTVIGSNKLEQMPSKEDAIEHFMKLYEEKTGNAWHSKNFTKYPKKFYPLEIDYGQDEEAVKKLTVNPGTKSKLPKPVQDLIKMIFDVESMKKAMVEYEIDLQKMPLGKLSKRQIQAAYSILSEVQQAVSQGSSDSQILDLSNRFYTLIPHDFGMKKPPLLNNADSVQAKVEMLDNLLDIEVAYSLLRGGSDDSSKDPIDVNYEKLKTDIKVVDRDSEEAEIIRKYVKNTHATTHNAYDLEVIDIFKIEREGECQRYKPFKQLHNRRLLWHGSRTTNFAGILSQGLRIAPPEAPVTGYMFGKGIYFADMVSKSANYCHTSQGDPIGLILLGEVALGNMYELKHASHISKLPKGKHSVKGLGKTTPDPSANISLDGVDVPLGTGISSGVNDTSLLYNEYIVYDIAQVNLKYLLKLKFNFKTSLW

On to `O=C1NN=Cc2c[nH]c3cccc1c23` [Compound 27, 1,5-Dihydro-[1,2]diazepino[4,5,6-cd]-indol-6-one], for which, in data set [1], the Ki was 3.4 nM. Moreover, in data set [2], the “Cytotoxicity Potentiation PF50” value is 1.3.
As for `O=C1NCCc2c(-c3cccc(CN4CCCC4)c3)[nH]c3cccc1c23` [TTTT, 2-(3-Pyrrolidin-1-ylmethylphenyl)-3,4,5,6-tetrahydro-1H-azepino[5,4,3-cd]indol-6-one], the melting point was 219 to 223 °C (dec.). Further, the Ki in data set [1] turned out to be 7.4 nM. Besides, the “Cytotoxicity Potentiation PF50” value in data set [2] amounted to 1.6.
Consider `CN(C)Cc1ccc(-c2[nH]c3cccc4c3c2CCNC4=O)cc1` [Compound 21, 2-(4-(N,N-Dimethylamino)methylphenyl)-3,4,5,6-tetrahydro-1H-azepino[5,4,3-cd]indol-6-one], for which the “Cytotoxicity Potentiation PF50” value in data set [2] is 2.4.
Regarding `O=C1NCCc2c(-c3ccc(CN4CCCC4)cc3)[nH]c3cccc1c23` [UUUU, 2-(4-Pyrrolidin-1-ylmethylphenyl)-3,4,5,6-tetrahydro-1H-azepino[5,4,3-cd]indol-6-one], the “Cytotoxicity Potentiation PF50” value in data set [2] amounted to 2.0.
Take `CNCc1ccc(-c2[nH]c3cccc4c3c2CCNC4=O)cc1` [OO, 2-(4-(N-Methylamino)methylphenyl)-3,4,5,6-tetrahydro-1H-azepino[5,4,3-cd]indol-6-one]: in data set [1], the Ki is 4.1 nM. Further, the “Cytotoxicity Potentiation PF50” value in data set [2] worked out at 2.4.
Molecule `O=C1NCCc2c(-c3cccc(Oc4ccc(F)cc4)c3)[nH]c3cccc1c23` [UU, 2-[3-(4-Fluoro-phenoxy)-phenyl]-1,3,4,5-tetrahydro-azepino[5,4,3-cd]indol-6-one] displayed a melting point of 240 to 241 °C. The Ki in data set [1] turned out to be 10 nM. Also, the “Cytotoxicity Potentiation PF50” value in data set [2] turned out to be 1.8.
In the same order, the values of `O=C1NCCc2c(-c3ccc(Cl)cc3)[nH]c3cccc1c23` [GGG, 2-(4-Chloro-phenyl)-1,3,4,5-tetrahydro-azepino[5,4,3-cd]indol-6-one] are 250 to 252 °C, 4.1 nM and 1.9.
In the case of `CN(C)Cc1ccc(-c2[nH]c3cccc4c3c2CNC4=O)cc1` [Compound 6], the “Cytotoxicity Potentiation PF50” value in data set [2] is recorded as 2.2.
In the case of `CNCc1cccc(-c2[nH]c3cc(F)cc4c3c2CCNC4=O)c1` [HHHH, 8-Fluoro-2-(3-methylaminomethyl-phenyl)-1,3,4,5-tetrahydro-azepino[5,4,3-cd]indol-6-one], the melting point was 270 to 272 °C (dec.). In addition, the Ki in data set [1] is 2.2 nM. Besides, the “Cytotoxicity Potentiation PF50” value in data set [2] is reported as 1.9.
Consider `CN(C)Cc1cccc(-c2[nH]c3cccc4c3c2CCNC4=O)c1` [Compound 22, 2-(3-(N,N-Dimethylamino)methylphenyl)-3,4,5,6-tetrahydro-1H-azepino[5,4,3-cd]indol-6-one], for which the melting point fell in the range of 222 to 225 °C. In addition, in data set [1], the Ki came to 7.2 nM. In addition, the “Cytotoxicity Potentiation PF50” value in data set [2] turned out to be 2.3.
In the case of `O=C1NCCc2c(-c3ccc(CCN4CCCC4)cc3)[nH]c3cccc1c23` [MMM, 2-[4-(2-Pyrrolidin-1-yl-ethyl)-phenyl]-1,3,4,5-tetrahydro-azepino[5,4,3-cd]indol-6-one], the melting point is 228 to 229 °C (dec.). Also, the Ki in data set [1] stood at 9.4 nM. Moreover, in data set [2], the “Cytotoxicity Potentiation PF50” value is 2.3.
Take `CNCc1ccc(-c2[nH]c3cc(F)cc4c3c2CCNC4=O)cc1` [IIII, 8-Fluoro-2-(4-methylaminomethyl-phenyl)-1,3,4,5-tetrahydro-azepino[5,4,3-cd]indol-6-one]: the “Cytotoxicity Potentiation PF50” value in data set [2] stood at 2.6.
As to `O=C1NN=C(CCc2ccccc2)c2c[nH]c3cccc1c23` [Compound 29, 1,5-Dihydro-3-phenethyl-[1,2]diazepino[4,5,6-cd]-indol-6-one], the Ki in data set [1] turned out to be 8 nM. Moreover, the “Cytotoxicity Potentiation PF50” value in data set [2] turned out to be 1.
With `O=C1NCCc2c(-c3ccc(CN4CCCC4)c(F)c3)[nH]c3cccc1c23` [QQQ, 2-(3-Fluoro-4-pyrrolidin-1-ylmethyl-phenyl)-1,3,4,5-tetrahydro-azepino[5,4,3-cd]indol-6-one], the melting point was 139 to 140 °C (dec.). For the same molecule, the Ki in data set [1] is 10.2 nM. In addition, in data set [2], the “Cytotoxicity Potentiation PF50” value is listed as 2.3.
Regarding `O=C(Nc1ccc(F)cc1)c1[nH]c2cccc3c2c1CCNC3=O` [Compound YYY, 6-Oxo-3,4,5,6-tetrahydro-1H-azepino[5,4,3-cd]indole-2-carboxylic acid (4-fluorophenyl)-amide], in data set [1], the Ki turned out to be 6.3 nM. Further, the “Cytotoxicity Potentiation PF50” value in data set [2] is given as 1.5.
For the molecule `C[N+](C)([O-])Cc1ccc(-c2[nH]c3cccc4c3c2CCNC4=O)cc1` [XXXX, 2-(4-(N,N-Dimethylamino)methylphenyl)-3,4,5,6-tetrahydro-1H-azepino[5,4,3-cd]indol-6-one, N-oxide], in data set [1], the Ki stood at 18 nM. In data set [2], the “Cytotoxicity Potentiation PF50” value is given as 1.7.
As for `O=C1NCCc2c(-c3ccc(-c4ccccc4)cc3)[nH]c3cccc1c23` [VV, 2-Biphenyl-4-yl-1,3,4,5-tetrahydro-azepino[5,4,3-cd]indol-6-one], the melting point is 277 to 279 °C (dec.). Also, the Ki in data set [1] is 10 nM. For the same molecule, the “Cytotoxicity Potentiation PF50” value in data set [2] was 2.0.
In the case of `O=C1NCCc2c(-c3cccc(C(F)(F)F)c3)[nH]c3cccc1c23` [Compound 30, 2-(3-Trifluoromethyl-phenyl)-1,3,4,5-tetrahydro-azepino[5,4,3-cd]indol-6-one], the melting point was 212.5 to 213.5 °C. Besides, the Ki in data set [1] was 6.3 nM. In addition, the “Cytotoxicity Potentiation PF50” value in data set [2] worked out at 2.4.
For `O=C1NN=C(c2ccccc2)c2c[nH]c3cccc1c23` [Compound 28, 1,5-Dihydro-3-phenyl-[1,2]diazepino[4,5,6-cd]-indol-6-one], in data set [1], the Ki is 4 nM and 3.8 nM. The “Cytotoxicity Potentiation PF50” value in data set [2] was determined as 1.
In the case of `O=C1NCCc2c(-c3ccc(CN4CCOCC4)cc3)[nH]c3cccc1c23` [VVVV, 2-(4-Morpholin-4-ylmethylphenyl)-3,4,5,6-tetrahydro-1H-azepino[5,4,3-cd]indol-6-one], in data set [1], the Ki was found to be 13.2 nM. Besides, in data set [2], the “Cytotoxicity Potentiation PF50” value is 2.1.
Consider `O=C1NCCc2c(-c3ccccc3O)[nH]c3cccc1c23` [DDD, 2-(2-Hydroxy-phenyl)-1,3,4,5-tetrahydro-azepino[5,4,3-cd]indol-6-one], for which the melting point was 305 °C (dec.). Moreover, in data set [1], the Ki was 23 nM.
Molecule `O=C1NCCc2c(-c3ccc(F)cc3F)[nH]c3cccc1c23` [Compound 39, 2-(2,4-Difluoro-phenyl)-1,3,4,5-tetrahydro-azepino[5,4,3-cd]indol-6-one] came in with a melting point of 196 to 197 °C. Moreover, the Ki in data set [1] came to 4.8 nM.
For `O=C1NCCc2c(-c3cccc(CCO)c3)[nH]c3cccc1c23` [ZZ, 2-[3-(2-Hydroxy-ethyl)-phenyl]-1,3,4,5-tetrahydro-azepino[5,4,3-cd]indol-6-one], in that order: 187.5 to 188.5 °C and 9.7 nM.
On to `O=C1NCCc2c(-c3ccc(CN4CCCC4)cc3)[nH]c3cc(F)cc1c23` [JJJJ, 8-Fluoro-2-(4-pyrrolidin-1-ylmethyl-phenyl)-1,3,4,5-tetrahydro-azepino[5,4,3-cd]indol-6-one], for which, in data set [1], the Ki was 4.4 nM. The “Cytotoxicity Potentiation PF50” value in data set [2] is given as 2.4.
`COC(=O)c1[nH]c2cccc3c2c1CCNC3=O` [Compound 42, 6-Oxo-3,4,5,6-tetrahydro-1H-azepino[5,4,3-cd]indole-2-carboxylic acid methyl ester] returned a melting point of 266 to 267 °C. For the same molecule, the Ki in data set [1] was found to be 5.1 nM.
For `O=C1NCCc2c(-c3ccc(F)cc3)[nH]c3cccc1c23` [Compound 23, 2-(4-Fluorophenyl)-3,4,5,6-tetrahydro-1H-azepino[5,4,3-cd]indol-6-one], the “Cytotoxicity Potentiation PF50” value in data set [2] worked out at 2.3.
Regarding `CSc1ccc(-c2[nH]c3cccc4c3c2CCNC4=O)cc1` [EEEE, 2-(4-Methylsulfanyl-phenyl)-1,3,4,5-tetrahydro-azepino[5,4,3-cd]indol-6-one], the melting point is 250 to 251 °C. Moreover, in data set [1], the Ki is 2.9 nM.
For `COc1ccc(Cl)cc1-c1[nH]c2cccc3c2c1CCNC3=O` [SSS, 2-(5-Chloro-2-methoxy-phenyl)-3,4,5,6-tetrahydro-azepino[5,4,3-cd]indol-6-one], in that order: 160 to 162 °C and 66 nM.
In the same order, the values of `O=C1NCCc2c(-c3ccncc3)[nH]c3cccc1c23` [JJJ, 2-Pyridin-4-yl-1,3,4,5-tetrahydro-azepino[5,4,3-cd]indol-6-one] are 250 °C (dec.) and 5.3 nM.
Consider `O=C1NCCc2c(-c3ccccc3)[nH]c3cccc1c23` [Compound 12, 2-Phenyl-3,4,5,6-tetrahydro-1H-azepino[5,4,3-cd]indol-6-one], for which the Ki in data set [1] amounted to 4.2 nM. In data set [2], the “Cytotoxicity Potentiation PF50” value is recorded as 1.8.
Take `CCN(CC)CCc1ccc(-c2[nH]c3cccc4c3c2CCNC4=O)cc1` [Compound YY, 2-[4-(2-Diethylamino-ethyl)-phenyl]-3,4,5,6-tetrahydro-azepino[5,4,3-cd]indol-6-one]: the melting point was 224 to 224.5 °C (dec.). Further, the Ki in data set [1] turned out to be 15.1 nM.
For `N#Cc1[nH]c2cccc3c2c1CCNC3=O` [EEE, 6-Oxo-3,4,5,6-tetrahydro-1H-azepino[5,4,3-cd]indole-2-carbonitrile], in that order: 315 °C (dec.) and 10.6 nM.
For `O=C1NCCc2c(-c3ccc(Cl)c(C(F)(F)F)c3)[nH]c3cccc1c23` [WW, 2-(4-Chloro-3-trifluoromethyl-phenyl)-1,3,4,5-tetrahydro-azepino[5,4,3-cd]indol-6-one], the melting point was 118.5 to 119 °C. For the same molecule, in data set [1], the Ki worked out at 4.4 nM.
With `O=C(O)c1[nH]c2cccc3c2c1CCNC3=O` [XXX, 6-Oxo-3,4,5,6-tetrahydro-1H-azepino[5,4,3-cd]indole-2-carboxylic Acid], the melting point is 298 to 299 °C (dec.). For the same molecule, the Ki in data set [1] stood at 370 nM.
